Here are results for five molecules from patent publication US7919077B2, “Pharmaceutical compositions comprising CCL2 and use of same for the treatment of inflammation” (Yeda Research and Development Co. Ltd., priority 2006, dated 2011).

One experiment relates to naïve T cells. Briefly: Cytoskeleton rearrangement (actin polymerization), naïve T cells. The conditions noted are these: CCL21 stimulation in presence of chemokine 0.1 ng/ml; FIG. 2e. The format is cell-based, mice. Here is the method: Cytoskeleton rearrangement—T cells were pre-incubated for 30 minutes in the presence or absence of CCL2 (0.1 ng/ml), and then stimulated with either CXCL12 (0.1 mg/ml PeproTech, Inc., Rocky Hill N.J.), SLC (CCL21, 0.4 mg/ml, PeproTech, Inc., Rocky Hill, N.J.), Rantes (0.1 mg/ml, R&D systems Minneapolis, Minn.), MIP-1β(0.1 mg/ml, R&D systems Minneapolis, Minn.) or Eotoxin (0.1 mg/ml R&D systems Minneapolis, Minn.) for 15 seconds. Cells were then immediately fixed with paraformaldehyde, permeabilized and their intracellular F-actin was stained with FITC-phalloidin (Sigma-Aldrich, St. Louis, Mo.), and then analyzed by flow cytometry to determine the state of their cytoskeleton, as previously described [Flaishon, L. F., et al., J. Biol. Chem. 276:46701 (2001)].

Experiment [1] concerns human T cells interacting with VCAM-1 (VLA-4). Briefly: Laminar flow adhesion assay on VCAM-1 with co-immobilized CCL21. The format is cell-based. The conditions noted are these: low dose chemokine pretreatment. Here is the method:
(§1) Laminar flow adhesion assays—Purified VCAM-1 or ICAM-1-Fc (both from R&D Systems, Minneapolis, Minn.) were coated with or without CCL21 (R&D Systems) on polystyrene plates as previously described [Grabovsky et al., J Exp Med. (2000) 192:495-506; Sigal et al., J Immunol. (2000) 165:442-452]. The polystyrene plates were each assembled on the lower wall of the flow chamber as previously described [Feigelson et al., J Biol Chem. (2001) 276:13891-13901]. All flow experiments were conducted at 37° C. Cells were washed with cation-free H/H medium, resuspended in binding medium (H/H medium supplemented with 1 mM CaCl2 and 1 mM MgCl2) and perfused through the flow chamber at low shear stress (0.5-0.75 dyn/cm^2) for 2 minutes. Tethers were defined as transient or rolling if cells attached briefly (<2 seconds) to the substrate and as arrests if immediately arrested and remaining stationary for at least 5 seconds of continuous flow. Frequencies of adhesive categories within differently pretreated cells were determined as a percentage of cells flowing immediately over the substrates, as previously described [Grabovsky et al., supra]. To assess resistance to detachment over time, accumulated cells were subjected to a shear stress of 5 dyn/cm^2 for 5 minutes. At the indicated time points, the number of cells that remained bound was expressed relative to T cell population originally accumulated in the first 2 minute period of the assay. Over 90% of cellular tethers to VCAM-1 or ICAM-1 were blocked by pretreating cells with VLA-4 or LFA-1 blockers respectively.

In experiment [2] the test system is human T cells interacting with ICAM-1 (LFA-1). Briefly: Laminar flow adhesion assay on ICAM-1 with co-immobilized CCL21. The format is cell-based. The conditions noted are these: low dose chemokine pretreatment. Here is the method:
as §1

A short description of another experiment: TNBS colitis mouse model. The format is in vivo, mice. The conditions noted are these: dexamethasone i.p. daily. Here is the method:
TNBS colitis model and treatment with CCL2—TNBS colitis was induced as previously described [Ohkawara et al. (2002) Gastroenterology, 123:256]. Briefly, mice were anesthetized by i.p. injection (35 μl per mouse) of a mixture containing 85% ketamine and 15% xylazine (20 mg/ml). Next, 100 μl of TNBS [55% volume of 50% ethanol mixed with 45% volume of TNBS solution ([…]; Sigma-Aldrich)] was infused into the colonic lumen (about 3.5 cm of the anal verge) via 1 ml syringe attached to a feeding needle. Treated mice were weighted daily and visually inspected for clinical symptoms, such as rectal bleeding and diarrhea.
TNBS mice were divided into 6 groups. CCL2 groups (10 mice in each group) were injected i.p. daily with different CCL2 concentrations (30 ng, 60 ng or 180 ng) in 200 μl of PBS from day 0 (immediately after TNBS induction) to day 6. Control groups (10 mice in each group) were injected i.p. daily with 200 μl PBS alone. Additionally, 5 mice were injected i.p. daily with dexamethasone; and 1 mouse which was not treated and served as negative control for future histology and weight.
Macroscopic and histological assessment of colitis—An observer blind to the experimental procedure scored colitis for clinical manifestation of disease. The colon was macroscopically examined (×5 magnification) to evaluate the macroscopic lesions according to the Wallace criteria. The Wallace score ranks macroscopic colon lesions on a scale from 0 to 16 based on criteria reflecting inflammation, such as hyperemia, thickening of the bowel and the extent of ulceration. The colon was cut lengthwise and fixed in 4% paraformaldehyde for future histology.

“Eotoxin: comparator chemokine (R&D systems) [reference compound]”: the “inhibitory effect of low levels of chemokine on actin polymerization of naïve T cells” value (“inhibitory effect” below) in the experiment on naïve T cells was “no inhibitory effect”.
On to “CXCL12: chemokine, chemoattractant for T cells; tested at low dose as comparator [reference compound]”, for which the “post arrest adhesion strengthening on VCAM-1 (resistance to detachment)” value in experiment [1] (high shear stress 5 dyn/cm^2, FIG. 6d) is given as “retained”. In addition, the “VLA-4 activation by surface bound CCL21 (arrest on VCAM-1)” value in experiment [1] (shear stress 0.75 dyn/cm^2, FIG. 6c) is reported as “retained”. The “post arrest adhesion strengthening on ICAM-1 (resistance to detachment)” value in experiment [2] (high shear stress 5 dyn/cm^2, FIG. 6b) is on record as “retained”. In experiment [2] (shear stress 0.5 dyn/cm^2, FIG. 6a), the “LFA-1 activation by surface bound CCL21 (arrest on ICAM-1)” value is “retained”. Further, in the experiment on naïve T cells, the “inhibitory effect” value is recorded as “no inhibitory effect”.
As for `C[C@@H]1C[C@H]2[C@@H]3CCC4=CC(=O)C=C[C@]4(C)[C@@]3(F)[C@@H](O)C[C@]2(C)[C@@]1(O)C(=O)CO` [dexamethasone, reference compound], the “Colon length (cm)” value in “TNBS colitis mouse model” was 8.17 ± 0.76 cm. The “Diarrhea (# of mice)” value in “TNBS colitis mouse model” (3 mice) is 0 # of mice. Besides, the Colitis score in “TNBS colitis mouse model” (Wallace score 0 to 16, mean±SEM) stood at 0.67 ± 0.58.

B1: Mip1β: comparator chemokine (R&D systems) (protein, UniProt P13236 24-92, looked up)
C-C motif chemokine 4: APMGSDPPTACCFSYTARKLPRNFVVDYYETSSLCSQPAVVFQTKRSKQVCADPSESWVQEYVYDLELN
B1: the “inhibitory effect” value with naïve T cells was “no inhibitory effect”.

B2: Rantes: comparator chemokine (R&D systems) (protein, UniProt P13501 24-91, looked up)
C-C motif chemokine 5: SPYSSDTTPCCFAYIARPLPRAHIKEYFYTSGKCSNPAVVFVTRKNRQVCANPEKKWVREYINSLEMS
For B2, the “inhibitory effect” value in the experiment on naïve T cells is on record as “no inhibitory effect”.
